Assay results: PubChem BioAssay (NCI)
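The compound was tested at five concentrations on cells cultured in 96-well plates, with a 48-hour exposure period. At the TGI there is no net growth.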

Tests used:
Test in all cases: DTP human tumour cell line panel, 48 h
EKVX NSCLC = test system: EKVX NSCLC
MDA-N = test system: MDA-N
CAKI-1 renal = test system: CAKI-1 renal
MDA-MB-435 = test system: MDA-MB-435
SN12C renal = test system: SN12C renal
MCF7 breast = test system: MCF7 breast
OVCAR-3 ovarian = test system: OVCAR-3 ovarian
DU-145 prostate = test system: DU-145 prostate
SF-268 CNS = test system: SF-268 CNS
RPMI-8226 leukemia = test system: RPMI-8226 leukemia

| SMILES | TGI (EKVX NSCLC) [µM] | TGI (MDA-N) [µM] | TGI (CAKI-1 renal) [µM] | TGI (MDA-MB-435) [µM] | TGI (SN12C renal) [µM] | TGI (MCF7 breast) [µM] | TGI (OVCAR-3 ovarian) [µM] | TGI (DU-145 prostate) [µM] | TGI (SF-268 CNS) [µM] | TGI (RPMI-8226 leukemia) [µM] |
| --- | --- | --- | --- | --- | --- | --- | --- | --- | --- | --- |
| Cc1cccc2c(=O)c3c(O)cc(O)cc3n(C)c12 | > 100 | > 100 | > 100 | > 100 | > 100 | > 100 | > 100 | > 100 | > 100 | > 100 |
| O=C1NC(N2CCCC(CO)C2)=N/C1=C\c1cccs1 (configuration not stated) | > 100 | > 100 | > 100 | > 100 | > 100 | > 100 | > 100 | > 100 | > 100 | > 100 |
| COC1OC2COC(=O)c3cc(O)c(O)c(O)c3-c3c(cc(O)c(O)c3O)C(=O)OC2C(O)C1O (configuration not stated) | > 100 | 59.2 | > 100 | 94.8 | 30.1 | > 100 | > 100 | > 100 | > 100 | > 100 |
| NC(CCC(=O)c1ccccn1)C(=O)O (configuration not stated) | > 100 | > 100 | > 100 | > 100 | > 100 | > 100 | > 100 | > 100 | > 100 | > 100 |
| CC(=O)OC1CCn2c1nc1cc([N+](=O)[O-])c(C)cc12 (configuration not stated) | > 100 | > 100 | > 100 | > 100 | > 100 | > 100 | > 100 | > 100 | > 100 | > 100 |
| NC(Cc1ccccc1)C(=O)OCN1C(=O)C2C3C=CC(C2C1=O)C1C(=O)N(COC(=O)C(N)Cc2ccccc2)C(=O)C31 (configuration not stated) | > 100 | > 100 | > 100 | > 100 | > 100 | 39.2 | > 100 | > 100 | > 100 | 48 |
| COc1cccc(NC(=O)CC(=O)NN)c1 | > 100 | > 100 | > 100 | > 100 | > 100 | > 100 | > 100 | > 100 | > 100 | > 100 |
| S=c1ncc(-c2cncc(-c3cnc(=S)[nH]c3)n2)c[nH]1 | > 100 | > 100 | > 100 | > 100 | > 100 | > 100 | > 100 | > 100 | > 100 | > 100 |
| Nc1nc(N)c2nc(CN(C=O)c3ccc(C(=O)O)cc3)cnc2n1 | > 100 | > 100 | > 100 | > 100 | > 100 | > 100 | > 100 | > 100 | > 100 | > 100 |
| NC1=Nc2cc(C(F)(F)F)ccc2Sc2nc3ccccc3n21 | > 100 | > 100 | > 100 | > 100 | > 100 | > 100 | > 100 | > 100 | > 100 | > 100 |
| CC1(C)N=C(C(N)=O)c2[nH]cnc2N1 | > 100 | > 100 | > 100 | > 100 | > 100 | > 100 | > 100 | > 100 | > 100 | > 100 |
| CCOC(=O)C1=C(O)CC(=O)N=C1N1CCCC1 | > 100 | > 100 | > 100 | > 100 | > 100 |  | > 100 | > 100 | > 100 | > 100 |
| C=CCOCC1C2CCC3(OCCO3)C21 (configuration not stated) | > 100 | > 100 | 87.5 | > 100 | > 100 | > 100 | > 100 | > 100 | > 100 | > 100 |
| CC1CC(=O)N(N(C)C)C2(C#N)C(=O)N=C(N)C12C#N (configuration not stated) | > 100 | > 100 | 48.3 | > 100 | > 100 | > 100 |  | > 100 | > 100 | 99.1 |
| c1ccc(C(Oc2noc3ccccc23)c2ccccc2)cc1 | > 100 | 67.2 | > 100 | 75.4 | > 100 | > 100 | > 100 | 78.6 | > 100 |  |
| CCOC(=O)C(C)c1nc2cc(F)c(F)cc2[nH]c1=O (configuration not stated) | > 100 | > 100 | > 100 | > 100 | > 100 | > 100 | > 100 | > 100 | > 100 | > 100 |
